Results reported in patent US9408393B2, “Bismuth-thiols as antiseptics for agricultural, industrial and other uses” (Microbion Corporation, priority 2010, dated 2016).
Read-outs that look alike come from different tables or passages of the source.

Key:
S. epidermidis = experiment: Broth dilution MIC/MBC, BT-antibiotic combinations; format: cell-based, Staphylococcus epidermidis; settings: S. epidermidis S2400-1; for Δ (0.05 BE), MIC: 0.05 μg/ml BisEDT; for Δ (0.1 BE), MBC: 0.1 μg/ml BisEDT
Protocol: Materials & Methods. Susceptibility studies were performed by broth dilution in 96-well tissue culture plates (Nalge Nunc International, Denmark) in accordance with NCCLS protocols (National Committee for Clinical Laboratory Standards. (1997). Methods for Dilution Antimicrobial Susceptibility Tests for Bacteria that Grow Aerobically: Approved Standard M7-A2 and Informational Supplement M100-S10. NCCLS, Wayne, Pa., USA).
Briefly, overnight bacterial cultures were used to prepare 0.5 McFarland standard suspensions, which were further diluted 1:50 (˜2×10^6 cfu/mL) in cation-adjusted Mueller-Hinton broth medium (BBL, Cockeysville, Md., USA). BTs (prepared as described above) and antibiotics were added at incremental concentrations, keeping the final volume constant at 0.2 mL. Cultures were incubated for 24 h at 37° C. and turbidity was assessed by absorption at 630 nm using an ELISA plate reader (Biotek Instruments, Winooski, Vt., USA) according to the manufacturer's recommendations. […] Viable bacterial counts (cfu/mL) were determined by standard plating on nutrient agar.
The checkerboard method was used to assess the activity of antimicrobial combinations. The fractional inhibitory concentration index (FICI) and the fractional bactericidal concentration index (FBCI) were calculated, according to Eliopoulos et al. (Eliopoulos and Moellering, (1996) Antimicrobial combinations. In Antibiotics in Laboratory Medicine (Lorian, V., Ed.), pp. 330-96, Williams and Wilkins, Baltimore, Md., USA). Synergy was defined as an FICI or FBCI index of […], no interaction at >0.5-4 and antagonism at >4 (Odds, F C (2003) Synergy, antagonism, and what the chequerboard puts between them. Journal of Antimicrobial Chemotherapy 52:1). Synergy was also defined conventionally as ≧4-fold decrease in antibiotic concentration.

[1] = tested on: S. epidermidis S2400-1 biofilm; experiment: Biofilm prevention, BisEDT-antibiotic combinations; format: cell-based, Staphylococcus epidermidis; settings: for Δ (0.05 BE), biofilm prevention: 0.05 μg/ml BisEDT
Protocol: (§1) S. epidermidis grown in TSB+2% glucose in polystyrene plates for 48 h at 37° C. Gatifloxacin (GF), clindamycin (CM), minocycline (MC), gentamicin (GM), vancomycin (VM), cefazolin (CZ), nafcillin (NC), and rifampicin (RP). […]

MRSA clinical isolates [2] = experiment: Broth dilution MIC in BHIG/X medium with subMIC BisEDT; format: cell-based, Staphylococcus aureus; settings: Staphylococcus aureus, MRSA, 12 MRSA clinical isolates, BHIG/X, mean ± SD
Protocol: (§2) Broth dilution antimicrobial susceptibility studies were performed against 12 MRSA strains using several antibiotics combined with subMIC levels of BisEDT (Table 18). Both the biofilm-prevention concentration (BPC) and the minimum inhibitory concentration (MIC) were determined in a special biofilm culture medium (BHIG/X). […] These strains were already sensitive to vancomycin, but were made considerably moreso in the presence of subMIC BisEDT.
In this particular study, the data indicated synergy between BisEDT and cefepime (FIC<0.5), with many of the isolates at the breakpoint for sensitivity.

[3] = tested on: MRSA clinical isolates biofilm; experiment: Biofilm-prevention concentration (BPC) in BHIG/X medium with subMIC BisEDT; format: cell-based, Staphylococcus aureus; settings: 12 MRSA clinical isolates, mean ± SD
Protocol: as §2

S. epidermidis biofilm = experiment: Biofilm prevention concentration (BPC), BisEDT and antibiotics; format: cell-based, Staphylococcus epidermidis
Protocol: as §1

MRSA clinical isolates [4] = settings: cited from earlier work; for MIC Standards, R (resistance): Standard MIC breakpoint for resistance; for MIC Standards, S (antibiotic sensitivity): Standard MIC breakpoint for sensitivity
[5] = tested on: lawn of MRSA (Methicillin-resistant S. aureus); experiment: Antibiotic-soaked discs on bacterial lawn with and without BisEDT; format: cell-based, Staphylococcus aureus; settings: antibiotic discs combined with BisEDT 0.05 μg/ml
Protocol: FIGS. 4A and 4B show the subinhibitory BisEDT reversing antibiotic-resistance to several antibiotics. Effects of antibiotics with and without BisEDT (0.05 μg/ml) on a lawn of MRSA (Methicillin-resistant S. aureus) is shown. […] [GM=gentamicin, CZ=cefazolin, FEP=cefepime, IPM=imipenim, SAM=ampicillin/sulbactam, LVX=levofloxacin.

| SMILES | Δ (0.05 BE), MIC (S. epidermidis) | Δ (0.1 BE), MBC (S. epidermidis) | MIC (S. epidermidis; BisEDT 0 μg/ml) [µg/mL] | MBC (S. epidermidis; BisEDT 0.0 μg/ml) [µg/mL] | MIC (S. epidermidis; BisEDT 0.05 μg/ml) [µg/mL] | MBC (S. epidermidis; BisEDT 0.1 μg/ml) [µg/mL] | MIC (S. epidermidis; BisEDT 0.1 μg/ml) [µg/mL] | Δ (0.05 BE), biofilm prevention [1] | Biofilm Prevention (antibiotic concentration) ([1]; BisEDT 0 μg/ml) [µg/mL] | Biofilm Prevention (antibiotic concentration) ([1]; BisEDT 0.05 μg/ml) [µg/mL] | Biofilm Prevention (antibiotic concentration) ([1]; BisEDT 0.1 μg/ml) [µg/mL] | BPC ([3]; BisEDT 0 μg/mL) [µg/mL] | BPC ([3]; BisEDT 0.025 μg/mL) [µg/mL] | BPC ([3]; BisEDT 0.05 μg/mL) [µg/mL] | BPC ([3]; BisEDT 0.1 μg/mL) [µg/mL] | MIC Standards, R (resistance) (MRSA clinical isolates [4]) | MIC Standards, S (antibiotic sensitivity) (MRSA clinical isolates [4]) | other results |
| --- | --- | --- | --- | --- | --- | --- | --- | --- | --- | --- | --- | --- | --- | --- | --- | --- | --- | --- |
| CN[C@H](CC(C)C)C(=O)N[C@H]1C(=O)N[C@@H](CC(N)=O)C(=O)N[C@H]2C(=O)N[C@H]3C(=O)N[C@H](C(=O)N[C@H](C(=O)O)c4cc(O)cc(O)c4-c4cc3ccc4O)[C@H](O)c3ccc(c(Cl)c3)Oc3cc2cc(c3O[C@@H]2O[C@H](CO)[C@@H](O)[C@H](O)[C@H]2O[C@H]2C[C@](C)(N)[C@H](O)[C@H](C)O2)Oc2ccc(cc2Cl)[C@H]1O [Vancomycin, vancomycin] | 1.40 | 3.86 | 3.2 | 5.4 | 2.3 | 1.4 | 0.3 | 3.6 | 3.2 | 0.9 | 0.1 | 2.5 ± 1.7 | 1.5 ± 0.6 | 1.3 ± 0.5 | 0.7 ± 0.4 | ≧32 μg/ml | ≦4 μg/ml | Synergy, MBC (S. epidermidis): borderline; MIC (MRSA clinical isolates [2]; BisEDT 0 μg/mL): 2.5 ± 1.7 µg/mL; MIC (MRSA clinical isolates [2]; BisEDT 0.025 μg/mL): 2.5 ± 1.7 µg/mL; MIC (MRSA clinical isolates [2]; BisEDT 0.05 μg/mL): 1.5 ± 0.6 µg/mL; MIC (MRSA clinical isolates [2]; BisEDT 0.1 μg/mL): 1.3 ± 0.5 µg/mL; Change of biofilm prevention concentration (BPC) (S. epidermidis biofilm; 0.05 μg/ml BisEDT): modest decreases |
| Cc1cc(NS(=O)(=O)c2ccc(N)cc2)no1 [sulphamethoxazole] |  |  |  |  |  |  |  |  |  |  |  |  |  |  |  |  |  | Antibiotic action on MRSA lawn with subMIC BisEDT [5]: enhanced antibiotic action |
| COc1c(N2CCNC(C)C2)c(F)cc2c(=O)c(C(=O)O)cn(C3CC3)c12 (stereo not shown) [Gatifloxacin, gatifloxacin] | 2.13 | 2.00 | 1.7 | 2.8 | 0.8 | 1.4 | 0.3 | 16.0 | 1.6 | 0.1 | 0.1 | 3.6 ± 2.6 | 2.6 ± 0.9 | 2.4 ± 1.1 | 0.9 ± 0.8 | ≧8 μg/ml | ≦2 μg/ml | MIC (MRSA clinical isolates [2]; BisEDT 0 μg/mL, read-out: MIC): 3.6 ± 2.6 µg/mL; MIC (MRSA clinical isolates [2]; BisEDT 0.025 μg/mL, read-out: MIC): 4 ± 2.8 µg/mL; MIC (MRSA clinical isolates [2]; BisEDT 0.05 μg/mL, read-out: MIC): 4 ± 2.8 µg/mL; MIC (MRSA clinical isolates [2]; BisEDT 0.1 μg/mL, read-out: MIC): 2.4 ± 1.1 µg/mL; Fold reduction of BPC in presence of subMIC BisEDT (S. epidermidis biofilm; TSB + 2% glucose, 48 h): 10 fold |
